Data from US20230147389A1, “Transdermal Drug Delivery System for Delivering a Drug to a Patient” (priority 2021, published 2023).
Where two headings read alike, the source gives them in different places.

What was measured:
[1] = pig
Text: Further, the rate of permeation may be determined using the Attenuated Total Reflection Fourier Transform Infrared Spectroscopy (ATR-FTIR), and multivariate modeling. […] The flux results may be obtained based on comprehensive in vitro permeation studies by using the pig abdominal skin samples, that may be normalized to reflect the equivalence of 0.10 cm skin thickness.
A proprietary chemometric modeling method may be used to perform quantitative analysis based on spectral data. In addition, the method may be used to determine the concentration of the active ingredient dissolved in the EthoGel formulation.
The skin permeation study may be conducted using a Bruker ATR-FTIR instrument (Model Alpha; Bruker Optics Ltd., MA, USA) equipped with a 2×2 mm diamond spectral window. Pig abdominal skin samples may be obtained from a local meat supplier. The skin samples may be treated by removing the fat and connecting tissues from the dermis side, followed by cutting them into 2×2 cm-size pieces and keeping them at freezing temperature for later use. Further, skin thickness may be measured before the experiment by allowing the skin sample to warm to room temperature and by using a Material Thickness Meter (Model No. PCE-CT 26; PCE Americas Inc, Jupiter, Fla., USA).
In a typical experiment, the skin sample may be put on the spectral window of the spectrometer with the dermis side facing the window. Further, about 1 g of the EthoGel formulation may be applied on the stratum corneum side of the skin sample, which may be covered by an applicator with an area of 3.5 cm^2 to minimize the loss of permeation enhancers (i.e., ethanol) through evaporation from the formulation. IR spectra may be taken at 15-60 min intervals and the experiment may be continued for up to 72 hours when needed. Further, the spectra may be used for calculating w/w % of the active ingredient (ibuprofen or diclofenac), ethanol, and glycerin on the dermis side of the skin. Chemometric modeling may be conducted using the software Unscrambler (CAMO Software AS, Oslo, Norway). The diffusion coefficients of the active ingredient, ethanol, and glycerin can be calculated using the following equation:
where D is the diffusion coefficient (cm2/H), L is the lag time (hour) and h is the skin thickness (cm).
The flux J (μg/cm2/H) is calculated using the following equation:
where D is the diffusion coefficient, C is the concentration (μg/mL) of the active ingredient dissolved in the EthoGel formulation and h is the thickness of the skin.

[2] = current marketed TD patch products; per 24 hours; cited from earlier work

| flux achieved by EGATDDS [1] | flux ([1]; 1 w/w %) | flux ([1]; 4 w/w %) | SMILES | amount of drug delivered in 24 hours [2] |
| --- | --- | --- | --- | --- |
| 5-324 μg/cm2/H | 54 μg/cm2/H |  | O=C(O)Cc1ccccc1Nc1c(Cl)cccc1Cl [diclofenac, Diclofenac] |  |
|  |  |  | CCCN(CCc1cccs1)[C@H]1CCc2c(O)cccc2C1 [ritigotine] | 1 mg |
| 25-1337 μg/cm2/H |  | 283 μg/cm2/H | CC(C)Cc1ccc(C(C)C(=O)O)cc1 (stereo not drawn) [ibuprofen, Ibuprofen] |  |
|  |  |  | CCN(C)C(=O)Oc1cccc([C@H](C)N(C)C)c1 [rivastigmine] | 4.5 mg |
